# Experimental data reported in BindingDB's records for doi:10.1002/1439-7633(20020902)3:9 (New York University, 2002).
# Molecular target: Inositol-trisphosphate 3-kinase A (Homo sapiens, UniProt P23677)
# Assay: Inhibition Assay
# Conditions: pH 8; 37 °C
# Description: IP3K reactions were carried out in a 100ul solution that contained Tris-Cl, EGTA, ATP, DTT, 2,3-diphosphoglycerate, D-l(1,4,5)P3, [3H]-l(1,4,5)P3 and various amounts of synthetic purine analogues.
# Sequence of Inositol-trisphosphate 3-kinase A (P23677 whole entry): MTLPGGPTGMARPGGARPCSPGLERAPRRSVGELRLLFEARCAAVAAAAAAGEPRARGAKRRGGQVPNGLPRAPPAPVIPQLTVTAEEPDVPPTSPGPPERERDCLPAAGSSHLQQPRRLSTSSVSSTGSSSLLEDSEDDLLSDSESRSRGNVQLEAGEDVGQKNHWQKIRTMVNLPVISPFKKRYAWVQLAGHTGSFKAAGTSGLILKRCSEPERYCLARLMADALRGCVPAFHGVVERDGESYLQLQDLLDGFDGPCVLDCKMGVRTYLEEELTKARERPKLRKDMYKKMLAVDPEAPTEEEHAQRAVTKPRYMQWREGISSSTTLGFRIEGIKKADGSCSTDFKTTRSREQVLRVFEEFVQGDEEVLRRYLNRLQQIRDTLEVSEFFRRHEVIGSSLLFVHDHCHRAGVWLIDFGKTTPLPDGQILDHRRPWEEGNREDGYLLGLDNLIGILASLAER
IC50,Ki,SMILES
12.7 µM,,"O=[N+]([O-])c1ccc(CNc2nc(NCc3ccc(Cl)cc3)nc3nc[nH]c23)cc1 [Purine, 24]"
28 µM,,"O=[N+]([O-])c1ccc(CNc2nc(NCc3ccccc3Cl)nc3nc[nH]c23)cc1 [Purine, 22]"
67.6 µM,,"O=[N+]([O-])c1ccc(CNc2nc(NCc3ccc(C(F)(F)F)cc3)nc3nc[nH]c23)cc1 [Purine, 18]"
20 µM,,"O=[N+]([O-])c1ccc(CNc2nc(NCc3cccc(Cl)c3)nc3nc[nH]c23)cc1 [Purine, 23]"
49 µM,,"O=[N+]([O-])c1ccc(CNc2nc(NCc3cccc(F)c3)nc3nc[nH]c23)cc1 [Purine, 20]"
18.2 µM,,"O=[N+]([O-])c1ccc(CNc2nc(NCc3ccccc3C(F)(F)F)nc3nc[nH]c23)cc1 [Purine, 17]"
28.8 µM,,"O=[N+]([O-])c1ccc(CNc2nc(NCc3ccc(F)cc3)nc3nc[nH]c23)cc1 [Purine, 21]"
23.4 µM,,"O=[N+]([O-])c1ccc(CNc2nc(NCc3ccccc3F)nc3nc[nH]c23)cc1 [Purine, 19]"

# Further lines, the compound ahead of its results:
SMILES,IC50,Ki
"Nc1ccc(CNc2nc(NCc3cccc(C(F)(F)F)c3)nc3nc[nH]c23)cc1 [Purine, 2]",13.5 µM,
"COc1ccc(CNc2nc(NCc3cccc(C(F)(F)F)c3)nc3c2ncn3C(C)C)cc1 [Purine, 11]",> 200 µM,
"Clc1ccc(CNc2nc(NCc3ccccc3)c3[nH]cnc3n2)cc1 [Purine, 7]",138 µM,
"CC(Nc1nc(NCc2ccccc2)c2[nH]cnc2n1)c1ccccc1 (stereo not given) [Purine, 15]",117 µM,
"Clc1cccc(CNc2nc(NCc3ccccc3)c3[nH]cnc3n2)c1 [Purine, 6]",150 µM,
"NCc1cccc(CNc2nc(NCc3ccccc3)c3[nH]cnc3n2)c1 [Purine, 14]",> 200 µM,
"FC(F)(F)c1cccc(CNc2nc(NCc3ccccc3)c3nc[nH]c3n2)c1 [Purine, 3]",13.7 µM,
"FC(F)(F)c1cccc(CNc2nc(NCc3ccccc3)c3ncn(C4CCCCO4)c3n2)c1 (stereo not given) [Purine, 4]",43.4 µM,
"Cn1cnc2c(NCc3ccc(N)cc3)nc(NCc3cccc(C(F)(F)F)c3)nc21 [Purine, 1]",57.1 µM,
"O=[N+]([O-])c1ccc(CNc2nc(NCc3cccc(C(F)(F)F)c3)nc3[nH]cnc23)cc1 [Purine, 5]",10.2 µM,4.3 µM
"Fc1ccc(CNc2nc(NCc3ccccc3)c3[nH]cnc3n2)cc1 [Purine, 9]",220 µM,
"CC(C)n1cnc2c(Nc3cccc(Cl)c3)nc(NCc3cccc(C(F)(F)F)c3)nc21 [Purine, 12]",> 200 µM,
"O=[N+]([O-])c1cccc(CNc2nc(NCc3ccccc3Cl)nc3nc[nH]c23)c1 [Purine, 16]",> 200 µM,
"Clc1ccc(CNc2nc(Nc3ccccc3)c3[nH]cnc3n2)cc1 [Purine, 10]",150 µM,
"c1ccc(CNc2nc(NCc3ccc4ccccc4c3)nc3nc[nH]c23)cc1 [Purine, 13]",63 µM,
"FC(F)(F)c1ccc(CNc2nc(NCc3ccc(C(F)(F)F)cc3)c3[nH]cnc3n2)cc1 [Purine, 8]",102 µM,
